According to article PMC6156508, “GA-Hecate antiviral properties on HCV whole cycle represent a new antiviral class and open the door for the development of broad spectrum antivirals” (Scientific Reports, 2018):
Where a SMILES comes first, the peptide text is derived from it. The star is where a group is joined. Galloyl = O=C(c1cc(O)c(O)c(O)c1)*

Assays:
[1] = system: Huh-7.5 cells harboring SGR-JFH-1 Feo; assay: MTT cytotoxicity in hepatocytes; assay type: cell-based, human
From the text: Figure 2 Hecate and its derivative-peptide effects on subgenomic HCV genotype 2a replication and hepatotoxicity. (A) Hecate. (B) Lys- Hecate. (C) GA-Hecate. (D) GA2-Hecate. (E) Acetyl-Hecate. (F) Glu-Hecate. Luciferase assays report HCV replication and MTT assays report the viability of Huh-7.5 cells harboring SGR-JFH-1 Feo under peptide treatment. Water was used as a negative control of virus replication inhibition and cell death (Control (−)), and Cyclosporine A was used as a positive control for virus replication inhibition (Control (+)). Red dotted lines represent the arbitrary threshold of 80% cell viability, and blue dotted lines represent the maximum inhibition presented by Hecate at the maximum safe concentration. Bars represent triplicates of the three independent assays. ***P < 0.01 vs control (−).
Peptide cytotoxicity profiles were measured by the MTT [3-(4,5-dimethylthiazol- 2-yl)-2,5-diphenyl tetrazolium bromide] (Sigma–Aldrich) method. Twenty-four hours before treatment, 5 × 10^3 SGR-harboring cell lines (SGR-Feo-JFH-1 or S52/SG-neo) were cultured with supplemented DMEM in a 96-multi-well plate and incubated at 37 °C in a humidified 5% CO2 incubator. On the subsequent day, peptide-containing medium was added at the following final concentrations: 2.5, 5, 10 and 20 μM. The tested peptides were Hecate and its derivatives, which included the following: lysine addition (Lysine-Hecate/Lys-Hecate); one or two molecules of Gallic Acid (GA-Hecate and GA2-Hecate); one acetyl radical (Acetyl-Hecate) or Glutamic acid (Glu-Hecate). After 48 h of incubation, peptide-media was removed, and MTT at a final concentration of 1 mg/mL was added to the wells, incubated for 30 minutes and subsequently replaced by 100 μL of DMSO. Absorbance was measured at 562 nm, using a plate spectrophotometer (FLUOstar Omega/BMG LABTECH, Offenburg, BW, DE). Cell viability was calculated considering water-treated cells (peptides diluent) as a negative control. All experiments were performed in triplicate and in three independent replicates. Further assays were performed considering at least 80% viability of the treated cells.
GA-Hecate toxicity and viral inhibition profile in 24, 48 and 72h post-treatment in […]
GA-Hecate toxicity and viral inhibition capacity were evaluated at 24, 48 and 72h post-treatment. Tested concentrations were 1.25; 2.5; 5; 10; 20; and 40 µM. At the end of every incubation, cells were stained using MTT as previously described. Similarly, at every time point, treated cells were lysed using PLB and summited to Luminescence analysis as previously described. […]

[2] = Permeabilization of LUVs, carboxyfluorescein release (lipid droplet mimetic); details: POPC:Cholesterol 9:1
From the text: Figure 8 Permeabilization of LUVs. (A) Percentage of carboxyfluorescein release in POPC:POPS (9:1) Post addition of LUVs at different concentrations of Hecate and GA-Hecate. (B) Percentage of carboxyfluorescein release results in POPC:Cholesterol (9:1) LUVs after the addition of different concentrations of Hecate and GA-Hecate. The bars indicate SD.
Phosphatidylcholine:Cholesterol (POPC:Cholesterol - 9:1; m:m) and phosphatidylcholine:phosphatidylserine (POPC:POPS - 9:1; m:m) vesicles, which mimic lipid droplets and the virus envelope, respectively, were prepared at a concentration of 15 mmol·L^−1. Each mixture was submitted to lipid solubilization in chloroform/methanol (4:1; v:v) and subsequent evaporation by nitrogen gas flow, resulting in the formation of a lipid film. The product evaporated using a vacuum procedure for complete removal of the solvents and then a solution containing the fluorophore carboxyfluorescein (CF; 50 mM) was added. The mixture was warmed up to 60 °C, sonicated and agitated for equal periods for 10 min to allow for the formation of vesicles encapsulated with CF. Following this, the mixture was processed in an extruder machine (Avanti Polar Lipids) to obtain large unilamellar vesicles. The obtained solution was then applied to a size exclusion column with Sephadex G20 resin for separation of the unencapsulated CF. […]

CC(C)C[C@H](NC(=O)[C@H](C)NC(=O)[C@H](CCCCN)NC(=O)[C@H](CCCCN)NC(=O)[C@H](CC(C)C)NC(=O)[C@H](C)NC(=O)[C@H](CCCCN)NC(=O)[C@H](CCCCN)NC(=O)[C@H](CC(C)C)NC(=O)[C@H](CCCCN)NC(=O)[C@H](CCCCN)NC(=O)[C@H](CC(C)C)NC(=O)[C@H](C)NC(=O)[C@H](CCCCN)NC(=O)[C@H](CCCCN)NC(=O)[C@H](CC(C)C)NC(=O)[C@H](C)NC(=O)[C@H](CCCCN)NC(=O)[C@H](CC(C)C)NC(=O)[C@H](C)NC(=O)[C@H](CC(C)C)NC(=O)[C@H](C)NC(=O)[C@H](Cc1ccccc1)NC(=O)c1cc(O)c(O)c(O)c1)C(N)=O [GA-Hecate] (Galloyl-FALALKALKKALKKLKKALKKAL-NH2)
cell toxicity ([1]; 1.25 µM, 72 h): no cell toxicity | cell death ([1]; 20 μM): 20% | CC50 (50% cytotoxic concentration) ([1]; 48 h incubation, SGR-Feo-JFH-1 Huh-7.5 cells, triplicate in three independent assays): 34.95 µM | CC50 72 h post-treatment ([1]; 72 h, 1.25-40 µM): 19 µM | maximum non-toxic (safe) concentration in hepatocytes ([1]; arbitrary threshold of 80% cell viability, 48 h): 20 µM | permeabilization effect relative to Hecate (fold higher) [2]: approximately 2 fold | permeabilization of LUVs (carboxyfluorescein release) ([2]; peptide 0.1 μM, 1% Triton = 100%, once in triplicate): approximately 70%
